Source: US20260285850A1, “SUBSTITUTED OXAZOLIDINONES AND IMIDAZOLINONES AS HERBICIDES” (FMC CORPORATION, priority 2023, published 2026)

Legend:
Format in all cases: in vivo
[1] = system: barnyardgrass (Echinochloa crus-galli); test: Test A preemergence soil spray, visual injury rating 0-100; settings: 10 days, 0 = no effect, 100 = complete control
How it was run: (§1)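 Loam-sand pots got test material in surfactant-containing solvent, either as a directed soil spray before emergence or on plants at the one- to two-leaf stage. Visual injury (0-100) was read after ten greenhouse days.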

[2] = system: blackgrass (Alopecurus myosuroides); test: as above; settings: 10 days, 0 = no effect, 100 = complete control
How it was run: as §1

corn (Zea mays) [3] = test: as above; settings: 10 days, 0 = no effect, 100 = complete control
How it was run: as §1

[4] = system: green foxtail (Setaria viridis); test: as above; settings: 10 days, 0 = no effect, 100 = complete control
How it was run: as §1

kochia (Bassia scoparia) [5] = test: as above; settings: 10 days, 0 = no effect, 100 = complete control
How it was run: as §1

[6] = system: oat, wild (wild oat, Avena fatua); test: as above; settings: 10 days, 0 = no effect, 100 = complete control
How it was run: as §1

[7] = system: palmer (palmer amaranth, palmer pigweed, Amaranthus palmeri); test: as above; settings: 10 days, 0 = no effect, 100 = complete control
How it was run: as §1

[8] = system: ragweed (common ragweed, Ambrosia artemisiifolia); test: as above; settings: 10 days, 0 = no effect, 100 = complete control
How it was run: as §1

[9] = system: ryegrass, Italian (italian ryegrass, Lolium multiflorum); test: as above; settings: 10 days, 0 = no effect, 100 = complete control
How it was run: as §1

soybean (Glycine max) [10] = test: as above; settings: 10 days, 0 = no effect, 100 = complete control
How it was run: as §1

[11] = system: wheat (Triticum aestivum); test: as above; settings: 10 days, 0 = no effect, 100 = complete control
How it was run: as §1

[12] = system: barnyardgrass (Echinochloa crus-galli); test: Test A postemergence application, visual injury rating 0-100; settings: 10 days
How it was run: as §1

[13] = system: blackgrass (Alopecurus myosuroides); test: as above; settings: 10 days
How it was run: as §1

corn (Zea mays) [14] = test: as above; settings: 10 days
How it was run: as §1

[15] = system: galium (catchweed bedstraw, Galium aparine); test: as above; settings: 10 days
How it was run: as §1

[16] = system: green foxtail (Setaria viridis); test: as above; settings: 10 days
How it was run: as §1

[17] = system: horseweed (Erigeron canadensis); test: as above; settings: 10 days
How it was run: as §1

kochia (Bassia scoparia) [18] = test: as above; settings: 10 days
How it was run: as §1

[19] = system: oat, wild (wild oat, Avena fatua); test: as above; settings: 10 days
How it was run: as §1

[20] = system: palmer (palmer amaranth, palmer pigweed, Amaranthus palmeri); test: as above; settings: 10 days
How it was run: as §1

[21] = system: ragweed (common ragweed, Ambrosia artemisiifolia); test: as above; settings: 10 days
How it was run: as §1

[22] = system: ryegrass, Italian (italian ryegrass, Lolium multiflorum); test: as above; settings: 10 days
How it was run: as §1

soybean (Glycine max) [23] = test: as above; settings: 10 days
How it was run: as §1

[24] = system: wheat (Triticum aestivum); test: as above; settings: 10 days
How it was run: as §1

[25] = system: barnyardgrass (Echinochloa crusgalli); test: Test B flooded paddy test, visual plant response rating 0-100; settings: 250 g ai/ha, Flood, applied to paddy water, evaluated after 13 days
How it was run: (§2)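 In this flooded assay, 2-leaf seedlings received compound through the water layer, kept at 3 cm over the soil. Plants were held 13 days in a greenhouse and then visually compared with control pots.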

[26] = system: ducksalad (Heteranthera limosa); test: as above; settings: 250 g ai/ha, Flood, applied to paddy water, evaluated after 13 days
How it was run: as §2

rice (Oryza sativa) = test: as above; settings: 250 g ai/ha, Flood, applied to paddy water, evaluated after 13 days
How it was run: as §2

[27] = system: sedge, umbrella (small-flower umbrella sedge, Cyperus difformis); test: as above; settings: 250 g ai/ha, Flood, applied to paddy water, evaluated after 13 days
How it was run: as §2

[28] = 31 g ai/ha, postemergence, 0 = no effect, 100 = complete control
[29] = Postemergence, 125 g ai/ha, 0 is no effect, 100 is complete control

CC(C)COC(=O)C1C=CC(NC(=O)C2(C)CN(c3cc(F)cc(F)c3)C(=O)O2)C1 (stereo not shown) [Compound 56]
Barnyardgrass plant response rating (0-100) ([1]; 31 g ai/ha): 30 | Barnyardgrass plant response rating (0 to 100 scale) ([1]; 125 g ai/ha): 100 | Blackgrass plant response rating (0-100) ([2]; 31 g ai/ha): 30 | Blackgrass plant response rating (0 to 100 scale) ([2]; 125 g ai/ha): 90 | Corn plant response rating (0-100) (corn (Zea mays) [3]; 31 g ai/ha): 10 | Corn plant response rating (0 to 100 scale) (corn (Zea mays) [3]; 125 g ai/ha): 90 | Foxtail, Green plant response rating (0-100) ([4]; 31 g ai/ha): 40 | Foxtail, Green plant response rating (0 to 100 scale) ([4]; 125 g ai/ha): 90 | Kochia plant response rating (0-100) (kochia (Bassia scoparia) [5]; 31 g ai/ha): 0 | Kochia plant response rating (0 to 100 scale) (kochia (Bassia scoparia) [5]; 125 g ai/ha): 90 | Oat, Wild plant response rating (0-100) ([6]; 31 g ai/ha): 90 | Oat, Wild plant response rating (0 to 100 scale) ([6]; 125 g ai/ha): 90 | Amaranth, Palmer plant response rating (0-100) ([7]; 31 g ai/ha): 0 | Amaranth, Palmer plant response rating (0 to 100 scale) ([7]; 125 g ai/ha): 70 | Ragweed plant response rating (0-100) ([8]; 31 g ai/ha): 0 | Ragweed plant response rating (0 to 100 scale) ([8]; 125 g ai/ha): 0 | Ryegrass, Italian plant response rating (0-100) ([9]; 31 g ai/ha): 80 | Ryegrass, Italian plant response rating (0 to 100 scale) ([9]; 125 g ai/ha): 90 | Soybean plant response rating (0-100) (soybean (Glycine max) [10]; 31 g ai/ha): 30 | Soybean plant response rating (0 to 100 scale) (soybean (Glycine max) [10]; 125 g ai/ha): 80 | Wheat plant response rating (0-100) ([11]; 31 g ai/ha): 90 | Wheat plant response rating (0 to 100 scale) ([11]; 125 g ai/ha): 100 | Barnyardgrass plant response rating (0-100) [12, 28]: 90 | Barnyardgrass plant response rating (0 to 100 scale) [12, 29]: 100 | Blackgrass plant response rating (0-100) [13, 28]: 60 | Blackgrass plant response rating (0 to 100 scale) [13, 29]: 90 | Corn plant response rating (0-100) (corn (Zea mays) [14]; [28]): 90 | Corn plant response rating (0 to 100 scale) (corn (Zea mays) [14]; [29]): 100 | Galium plant response rating (0-100) [15, 28]: 80 | Galium plant response rating (0 to 100 scale) [15, 29]: 80 | Foxtail, Green plant response rating (0-100) [16, 28]: 30 | Foxtail, Green plant response rating (0 to 100 scale) [16, 29]: 90 | Horseweed plant response rating (0-100) [17, 28]: 20 | Horseweed plant response rating (0 to 100 scale) [17, 29]: 80 | Kochia plant response rating (0-100) (kochia (Bassia scoparia) [18]; [28]): 70 | Kochia plant response rating (0 to 100 scale) (kochia (Bassia scoparia) [18]; [29]): 80 | Oat, Wild plant response rating (0-100) [19, 28]: 90 | Oat, Wild plant response rating (0 to 100 scale) [19, 29]: 90 | Amaranth, Palmer plant response rating (0-100) [20, 28]: 90 | Amaranth, Palmer / Pigweed, Palmer plant response rating (0 to 100 scale) [20, 29]: 80 | Ragweed plant response rating (0-100) [21, 28]: 50 | Ragweed plant response rating (0 to 100 scale) [21, 29]: 70 | Ryegrass, Italian plant response rating (0-100) [22, 28]: 90 | Ryegrass, Italian plant response rating (0 to 100 scale) [22, 29]: 90 | Soybean plant response rating (0-100) (soybean (Glycine max) [23]; [28]): 70 | Soybean plant response rating (0 to 100 scale) (soybean (Glycine max) [23]; [29]): 70 | Wheat plant response rating (0-100) [24, 28]: 90 | Wheat plant response rating (0 to 100 scale) [24, 29]: 90 | Plant response rating, Barnyardgrass (0 to 100 scale, 0 is no effect and 100 is complete control) [25]: 95 | Plant response rating, Ducksalad (0 to 100 scale, 0 is no effect and 100 is complete control) [26]: 90 | Plant response rating, Rice (0 to 100 scale, 0 is no effect and 100 is complete control) (rice (Oryza sativa)): 15 | Plant response rating, Sedge, Umbrella (0 to 100 scale, 0 is no effect and 100 is complete control) [27]: 50
